Key:
Assay in all cases: BOCILLIN FL fluorescence inhibition, SDS-PAGE
Format in all cases: binding
Conditions in all cases: read-out: FIC50
DacB2 (Rv2911) = DacB2 (Rv2911) (Mycobacterium tuberculosis, UniProt I6Y204)
Description: BOCILLIN FL fluorescence inhibition, SDS-PAGE on DacB2 (Rv2911)

DacB1 (Rv3330) = DacB1 (Rv3330) (Mycobacterium tuberculosis, UniProt O53380)
Description: BOCILLIN FL fluorescence inhibition, SDS-PAGE on DacB1 (Rv3330)

PonA1 (Rv0050) = PonA1 (Rv0050) (Mycobacterium tuberculosis, UniProt P71707)
Chain of PonA1 (Rv0050) (P71707 160-820): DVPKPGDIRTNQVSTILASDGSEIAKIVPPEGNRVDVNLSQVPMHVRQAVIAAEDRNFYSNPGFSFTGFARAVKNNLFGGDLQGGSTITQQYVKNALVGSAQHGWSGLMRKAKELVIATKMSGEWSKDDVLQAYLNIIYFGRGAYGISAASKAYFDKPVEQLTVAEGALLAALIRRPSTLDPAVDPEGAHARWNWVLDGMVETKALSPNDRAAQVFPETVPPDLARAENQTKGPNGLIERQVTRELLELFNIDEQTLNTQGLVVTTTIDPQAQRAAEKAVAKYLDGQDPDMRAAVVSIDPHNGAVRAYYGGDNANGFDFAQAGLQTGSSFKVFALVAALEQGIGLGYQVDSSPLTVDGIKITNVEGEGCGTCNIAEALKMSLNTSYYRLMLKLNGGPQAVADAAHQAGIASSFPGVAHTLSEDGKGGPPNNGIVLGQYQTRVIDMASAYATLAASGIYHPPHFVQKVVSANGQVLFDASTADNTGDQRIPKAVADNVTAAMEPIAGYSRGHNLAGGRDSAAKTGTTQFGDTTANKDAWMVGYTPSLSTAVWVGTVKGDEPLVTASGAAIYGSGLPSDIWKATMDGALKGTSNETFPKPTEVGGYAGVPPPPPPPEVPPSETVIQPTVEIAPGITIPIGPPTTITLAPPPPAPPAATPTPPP
Description: BOCILLIN FL fluorescence inhibition, SDS-PAGE on PonA1 (Rv0050)

DacB (Rv3627c) = DacB (Rv3627c) (Mycobacterium tuberculosis, UniProt O06380)
Chain of DacB (Rv3627c) (O06380 35-461): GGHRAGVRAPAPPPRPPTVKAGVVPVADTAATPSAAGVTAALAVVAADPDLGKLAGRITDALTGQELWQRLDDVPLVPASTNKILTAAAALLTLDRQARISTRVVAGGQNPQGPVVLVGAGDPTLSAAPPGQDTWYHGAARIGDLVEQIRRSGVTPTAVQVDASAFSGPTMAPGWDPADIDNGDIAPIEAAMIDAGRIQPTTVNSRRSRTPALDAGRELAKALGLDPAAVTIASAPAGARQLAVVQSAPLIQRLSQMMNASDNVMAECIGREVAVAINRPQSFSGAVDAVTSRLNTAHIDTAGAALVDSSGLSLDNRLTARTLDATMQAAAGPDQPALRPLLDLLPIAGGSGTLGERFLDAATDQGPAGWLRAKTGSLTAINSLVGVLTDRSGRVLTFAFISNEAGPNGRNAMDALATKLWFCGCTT
Description: BOCILLIN FL fluorescence inhibition, SDS-PAGE on DacB (Rv3627c)

Rv1730c = Rv1730c (Mycobacterium tuberculosis, UniProt P71988)
Chain of Rv1730c (P71988 entry or part of it): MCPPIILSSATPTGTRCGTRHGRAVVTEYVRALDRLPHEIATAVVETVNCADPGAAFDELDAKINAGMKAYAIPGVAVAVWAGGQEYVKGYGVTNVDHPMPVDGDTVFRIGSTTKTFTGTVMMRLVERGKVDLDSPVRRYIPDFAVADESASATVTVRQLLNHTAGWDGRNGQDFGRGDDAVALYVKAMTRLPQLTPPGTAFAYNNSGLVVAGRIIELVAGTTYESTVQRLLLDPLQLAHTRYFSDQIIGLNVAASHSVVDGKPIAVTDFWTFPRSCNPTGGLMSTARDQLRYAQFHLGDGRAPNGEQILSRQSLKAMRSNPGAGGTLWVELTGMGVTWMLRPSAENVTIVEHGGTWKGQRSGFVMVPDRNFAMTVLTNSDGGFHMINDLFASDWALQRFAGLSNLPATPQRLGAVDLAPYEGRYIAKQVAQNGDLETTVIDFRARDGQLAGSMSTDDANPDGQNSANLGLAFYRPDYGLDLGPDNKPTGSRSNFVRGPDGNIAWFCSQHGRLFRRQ
Description: BOCILLIN FL fluorescence inhibition, SDS-PAGE on Rv1730c

PbpB (Rv2163c) = PbpB (Rv2163c) (Mycobacterium tuberculosis, UniProt L0T911)
Chain of PbpB (Rv2163c) (L0T911 112-679): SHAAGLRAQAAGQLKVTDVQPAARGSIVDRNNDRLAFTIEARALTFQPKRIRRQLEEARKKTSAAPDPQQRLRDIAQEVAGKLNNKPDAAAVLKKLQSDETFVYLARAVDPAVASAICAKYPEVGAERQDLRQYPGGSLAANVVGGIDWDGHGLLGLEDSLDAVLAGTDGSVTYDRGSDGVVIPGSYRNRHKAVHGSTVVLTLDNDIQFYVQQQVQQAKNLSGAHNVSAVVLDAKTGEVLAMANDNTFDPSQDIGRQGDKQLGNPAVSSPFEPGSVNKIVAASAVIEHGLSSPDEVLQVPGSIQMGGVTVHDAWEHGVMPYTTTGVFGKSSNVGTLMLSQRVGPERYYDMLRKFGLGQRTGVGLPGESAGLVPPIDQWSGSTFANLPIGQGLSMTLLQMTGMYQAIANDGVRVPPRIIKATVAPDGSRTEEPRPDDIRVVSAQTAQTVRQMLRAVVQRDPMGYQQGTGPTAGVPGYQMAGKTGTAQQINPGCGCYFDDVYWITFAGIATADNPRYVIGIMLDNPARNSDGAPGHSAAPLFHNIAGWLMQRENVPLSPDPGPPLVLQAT
Description: BOCILLIN FL fluorescence inhibition, SDS-PAGE on PbpB (Rv2163c)

PbpA (Rv0016c) = PbpA (Rv0016c) (Mycobacterium tuberculosis, UniProt P9WKD1)
Chain of PbpA (Rv0016c) (P9WKD1 29-491): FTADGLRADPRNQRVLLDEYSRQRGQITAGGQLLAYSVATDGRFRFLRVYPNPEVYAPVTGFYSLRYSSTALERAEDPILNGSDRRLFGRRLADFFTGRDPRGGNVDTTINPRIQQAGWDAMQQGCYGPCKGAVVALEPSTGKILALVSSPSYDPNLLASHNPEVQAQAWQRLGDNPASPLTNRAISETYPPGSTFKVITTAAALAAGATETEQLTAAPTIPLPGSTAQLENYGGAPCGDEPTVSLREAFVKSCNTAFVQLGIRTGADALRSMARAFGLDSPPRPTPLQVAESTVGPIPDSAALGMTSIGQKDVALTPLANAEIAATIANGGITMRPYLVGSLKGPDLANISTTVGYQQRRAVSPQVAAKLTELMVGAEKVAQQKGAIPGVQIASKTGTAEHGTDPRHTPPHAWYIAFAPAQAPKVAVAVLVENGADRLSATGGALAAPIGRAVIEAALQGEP
Description: BOCILLIN FL fluorescence inhibition, SDS-PAGE on PbpA (Rv0016c)

PonA2 (Rv3682) = PonA2 (Rv3682) (Mycobacterium tuberculosis, UniProt I6YGX2)
Chain of PonA2 (Rv3682) (I6YGX2 entry or part of it): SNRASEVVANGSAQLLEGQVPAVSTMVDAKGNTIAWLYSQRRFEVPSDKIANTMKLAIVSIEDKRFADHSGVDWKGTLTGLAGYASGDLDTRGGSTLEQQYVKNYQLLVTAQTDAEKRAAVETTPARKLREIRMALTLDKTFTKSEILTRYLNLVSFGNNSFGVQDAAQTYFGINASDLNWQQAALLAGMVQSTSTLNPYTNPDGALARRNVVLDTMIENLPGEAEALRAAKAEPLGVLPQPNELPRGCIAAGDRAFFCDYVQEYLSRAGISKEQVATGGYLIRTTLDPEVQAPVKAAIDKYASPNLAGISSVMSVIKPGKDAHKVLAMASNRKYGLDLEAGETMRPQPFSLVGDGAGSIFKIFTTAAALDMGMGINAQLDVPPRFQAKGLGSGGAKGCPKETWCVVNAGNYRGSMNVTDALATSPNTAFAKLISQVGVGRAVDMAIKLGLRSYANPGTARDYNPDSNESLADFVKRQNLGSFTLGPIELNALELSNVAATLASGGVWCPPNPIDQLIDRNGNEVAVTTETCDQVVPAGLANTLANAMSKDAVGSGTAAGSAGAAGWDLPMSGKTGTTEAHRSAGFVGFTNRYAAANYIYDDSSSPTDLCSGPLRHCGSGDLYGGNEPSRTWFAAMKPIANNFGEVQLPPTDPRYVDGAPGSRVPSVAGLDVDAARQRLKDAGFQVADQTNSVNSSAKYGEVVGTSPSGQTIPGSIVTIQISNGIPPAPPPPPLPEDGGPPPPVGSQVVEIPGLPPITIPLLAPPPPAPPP
Description: BOCILLIN FL fluorescence inhibition, SDS-PAGE on PonA2 (Rv3682)

Chain of DacB1 (Rv3330) (O53380 33-374): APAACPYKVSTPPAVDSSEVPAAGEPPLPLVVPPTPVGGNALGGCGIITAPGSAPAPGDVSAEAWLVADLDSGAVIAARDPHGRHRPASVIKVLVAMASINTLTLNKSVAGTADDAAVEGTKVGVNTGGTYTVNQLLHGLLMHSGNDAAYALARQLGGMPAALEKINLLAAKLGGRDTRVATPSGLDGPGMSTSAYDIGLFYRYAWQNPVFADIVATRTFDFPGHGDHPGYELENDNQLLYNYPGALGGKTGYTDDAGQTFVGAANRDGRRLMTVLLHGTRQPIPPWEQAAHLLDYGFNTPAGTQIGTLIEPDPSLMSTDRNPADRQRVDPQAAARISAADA
Chain of DacB2 (Rv2911) (I6Y204 23-291): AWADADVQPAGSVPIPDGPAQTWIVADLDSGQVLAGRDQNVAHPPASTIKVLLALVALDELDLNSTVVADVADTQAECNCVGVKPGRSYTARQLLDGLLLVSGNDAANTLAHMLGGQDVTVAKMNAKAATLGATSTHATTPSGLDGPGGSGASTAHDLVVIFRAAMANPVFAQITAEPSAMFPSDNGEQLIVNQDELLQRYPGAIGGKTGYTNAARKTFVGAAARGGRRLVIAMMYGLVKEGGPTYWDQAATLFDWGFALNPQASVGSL

CO[C@@]1(NC(=O)Cc2cccs2)C(=O)N2C(C(=O)O)=C(COC(N)=O)CS[C@@H]21 [Cefoxitin]
IC50 (DacB2 (Rv2911)): 8.1 ± 2.4 µM
IC50 (DacB1 (Rv3330)): 15.6 ± 1.2 µM
IC50 (PonA1 (Rv0050)): 25.1 ± 2.5 µM

C[C@@H](O)[C@H]1C(=O)N2C(C(=O)[O-])=C(SC3Cn4cnc[n+]4C3)[C@H](C)[C@H]12 (some centres unmarked) [Biapenem]
IC50 (DacB1 (Rv3330)): 18.1 ± 3 µM
IC50 (DacB (Rv3627c)): 3.5 ± 0.2 µM
IC50 (Rv1730c): 569 ± 72.1 µM

CC1(C)S[C@@H]2[C@H](NC(=O)[C@H](N)c3ccccc3)C(=O)N2[C@H]1C(=O)O [Ampicillin]
IC50 (PbpB (Rv2163c)): 1.5 ± 0.4 µM

C[C@@H](O)[C@H]1C(=O)N2C(C(=O)O)=C([C@H]3CCCO3)S[C@H]12 [Faropenem]
IC50 (PonA1 (Rv0050)): 27.9 ± 3.5 µM
IC50 (Rv1730c): 89.8 ± 12.3 µM

C[C@@H](O)[C@H]1C(=O)N2C(C(=O)O)=C(S[C@@H]3CN[C@H](C(=O)N(C)C)C3)[C@H](C)[C@H]12 [Meropenem]
IC50 (PbpB (Rv2163c)): 4.1 ± 0.2 µM
IC50 (DacB (Rv3627c)): 1.5 ± 0.2 µM
IC50 (Rv1730c): 838 ± 103 µM

C=CC1=C(C(=O)O)N2C(=O)[C@@H](NC(=O)/C(=N\O)c3csc(N)n3)[C@H]2SC1 [Cefdinir]
IC50 (PbpA (Rv0016c)): 13.8 ± 6.9 µM

COc1cccc(OC)c1C(=O)N[C@@H]1C(=O)N2[C@@H]1SC(C)(C)[C@@H]2C(=O)O [Methicillin]
IC50 (PbpA (Rv0016c)): 11.6 ± 2.6 µM

C[C@@H](O)[C@H]1C(=O)N2C(C(=O)O)=C(SCCN=CN)C[C@H]12 [Imipenem]
IC50 (DacB2 (Rv2911)): 11.1 ± 3.2 µM
IC50 (DacB1 (Rv3330)): 4.5 ± 1.4 µM
IC50 (PonA2 (Rv3682)): 3 ± 0.6 µM

Reference: article PMC8865919, “Penicillin Binding Proteins and β-Lactamases of Mycobacterium tuberculosis: Reexamination of the Historical Paradigm” (mSphere, 2022)
